The source of these data is patent US12054744B2, “NK cells exhibiting an adaptive phenotype and methods for preparing and for using” (Regents of the University of Minnesota, priority 2015, dated 2024).

This experiment concerns cord blood-derived CD56^+ NK cells. The experiment can be described thus: Cord blood-derived NK cell culture on OP9 native or OP9-DL1 stromal cells with IL-15 with or without IL-21; FACS for CD57 and SYK. The experiment is classed as cell-based, human. Here is the method: OP9 stromal cells transduced with either the empty MigR1 retroviral vector (OP9 native) or with the MigR1 retroviral vector containing the Delta-like 1 gene (OP9-DL1) (Schmitt et al. Immunity. 2002; 17(6):749-756) were cultured in MEMα media+20% fetal bovine serum (FBS) at a concentration of 4×10^5 cells/well in 24-well plates for two days to allow for cell adherence. Plates were then irradiated with 2,000 cGy to stop cell proliferation.
Mononuclear cells were isolated from whole cord blood by density gradient centrifugation. T cells and B cells were depleted by positive magnetic selection using anti-CD3 and anti-CD19 microbeads, respectively. CD3/CD19-depleted cells were then added to irradiated OP9 cells at a concentration of 5×10^5 cells/well and cultured for 14 days in RPMI media+10% FBS supplemented with either 1 ng/mL IL-15 or 10 ng/mL IL-15 with or without 50 ng/mL IL-21.
Cord blood-derived NK cells were analyzed before culture and after 7 and 14 days of culture by fluorescence activated cell sorting (FACS) using the following extracellular and intracellular antibodies: BV785-conjugated anti-CD3 (BioLegend, San Diego, CA), PE-Cy7-conjugated anti-CD56 (BioLegend, San Diego, CA), BV605-conjugated anti-CD57 (BioLegend, San Diego, CA), APC-conjugated SYK (eBioscience, San Diego, CA), and PE-conjugated anti-PLZF (BD Biosciences, San Jose, CA).
The Notch signaling pathway plays an essential role in effector CD8^+ T cell differentiation and controls the acquisition of effector function (Backer et al. Nat Immunol. 2014; 15(12):1143-1151). To determine if Notch signaling could play a role in driving the differentiation and expansion of terminally differentiated and adaptive NK cell subsets, CD3/CD19-depleted mononuclear cells were cultured from cord blood on native OP9 stromal cells or OP9 stromal cells stably transduced with the Notch ligand DL1 in the presence of low-dose (1 ng/mL) IL-15 or high-dose (10 ng/mL) IL-15 with or without IL-21 (50 ng/mL). Cells were harvested at days 7 and 14, and CD56^+ NK cells were analyzed by fluorescence activated cell sorting (FACS) for expression of CD57 and SYK. Prior to culture, an average of 2.13%±0.44 of CD56^+ NK cells expressed CD57.

The mark [1] stands for this setting: OP9-DL1, high-dose (10 ng/mL) IL-15, day 7.
[2] abbreviates: OP9-DL1, high-dose (10 ng/mL) IL-15, day 14.
The mark [3] stands for this setting: OP9-DL1, low-dose (1 ng/mL) IL-15, day 7.
The mark [4] stands for this setting: OP9-DL1, low-dose (1 ng/mL) IL-15, day 14.
The mark [5] stands for this setting: OP9 native, high-dose (10 ng/mL) IL-15, day 7.
Where [6] appears, read: OP9 native, high-dose (10 ng/mL) IL-15, day 14.
The mark [7] stands for this setting: OP9 native, low-dose (1 ng/mL) IL-15, day 7.
Where [8] appears, read: OP9 native, low-dose (1 ng/mL) IL-15, day 14.

Where “and” joins values, the source holds several entries; their conditions need not be identical. Equal entries are not always repeated.

For the substance “IL-15: cytokine in culture medium, low-dose 1 ng/mL or high-dose 10 ng/mL”, the “percentage of CD56^+ NK cells expressing CD57” value is 1.30%±0.31 under setting [1]; 0.86%±0.44 under setting [2]; 0.91%±0.34 under setting [3]; 0.93%±0.40 under setting [4]; 0.70%±0.23 under setting [5]; 0.22%±0.10 under setting [6]. For the same substance, the “percentage of CD56^+ NK cells expressing CD57” value by setting is: under setting [7], 0.59%±0.19; under setting [8], 0.24%±0.11. In addition, the “percentage of CD56^+ NK cells lacking SYK” value reads like this: under setting [1], 0.34%±0.04 and 0.67%±0.10; under setting [2], 0.43%±0.15; under setting [3], 0.25%±0.06; under setting [4], 0.17%±0.08; under setting [5], 0.21%±0.05; under setting [6], 0.43%±0.15. For the same substance, the “percentage of CD56^+ NK cells lacking SYK” value is, setting by setting: under setting [7], 0.18%±0.06; under setting [8], 0.07%±0.03.
